Reference: patent US20200199647A1, “ASSAY FOR SCREENING MODULATORS OF HOLOPHOSPHATASE ACTIVITY” (UNITED KINGDOM RESEARCH AND INNOVATION, priority 2017, published 2020)

Experiments:
[1] = target: T1, R15A-PP1c (Homo sapiens, UniProt O75807); experiment: In vitro dephosphorylation of P-eIF2α by recombinant R15A-PP1c holophosphatase (10 nM PP1c); assay type: biochemical; details: PP1c 10 nM, 1 μM P-eIF2α, compounds 100 μM, 30° C., 16 h
T1 construct: PPP1R15A amino acids 325-636 (R15A); His6 (C); made in house; host or cells: E. coli BL21 pLysS (R15A, eIF2α); E. coli BL21/pGro7 (PP1c)
Method: (§1) PP1c was diluted to the appropriate concentration (as indicated in the figure legends) in dephosphorylation buffer immediately prior to use. Dephosphorylation reactions were carried out by pre-incubating diluted PP1c in the presence or absence of regulatory subunits (either […]), and/or compounds (all at 100 μM, except for Salubrinal which was used at 30 μM), for 15′ at RT. All compounds were diluted in DMSO, and DMSO vehicle was used in all control experiments.
(§2) The reaction was initiated by the addition of 1 μM P-eIF2α or ^33P Phosphorylase a substrates and then incubated at 30° C. for 16 h with shaking at 350 rpm. Reactions were stopped by addition of 4× Laemmli sample buffer. eIF2α samples were analyzed by immunoblotting or Phos-tag gels. […] Samples in FIG. 8 and FIG. 16 were run on a 15% SuperSep Phos-tag acrylamide gel (Alpha Laboratories) and visualized by staining with InstantBlue Protein Stain.

[2] = target: T2, R15B-PP1c (Homo sapiens, UniProt Q5SWA1); experiment: In vitro dephosphorylation of P-eIF2α by recombinant R15B-PP1c holophosphatase (10 nM PP1c); assay type: biochemical; details: PP1c 10 nM, 1 μM P-eIF2α, compounds 100 μM, 30° C., 16 h
T2 construct: PPP1R15B amino acids 340-698 (R15B); His6 (C); made in house; host or cells: E. coli BL21 pLysS (R15B, eIF2α); E. coli BL21/pGro7 (PP1c)
Method: as §1
The reaction was initiated by the addition of 1 μM P-eIF2α or ^33P Phosphorylase a substrates and then incubated at 30° C. for 16 h with shaking at 350 rpm. Reactions were stopped by addition of 4× Laemmli sample buffer. eIF2α samples were analyzed by immunoblotting or Phos-tag gels. P-eIF2α dephosphorylation was analysed by immunoblotting using anti-Phospho-eIF2α (SerS1) (#9721) (Cell Signaling) and anti-eIF2α (ab26197) (AbCam) antibodies. Samples in FIG. 8 and FIG. 16 were run on a 15% SuperSep Phos-tag acrylamide gel (Alpha Laboratories) and visualized by staining with InstantBlue Protein Stain.

[3] = target: T3, R15A (Homo sapiens, UniProt O75807); experiment: Limited trypsin proteolysis of R15A (conformational change); details: 100 μM compound, 0.5 μM R15A, 2.5 nM trypsin, 30 min to 3 h, 22° C.
T3 construct: PPP1R15A amino acids 325-636 (R15A); His6 (C); made in house; host or cells: E. coli BL21 pLysS
Method: (§3) Reactions were allowed to proceed at 22° C. with shaking at 350 rpm. At time points 30 min, 1 h, 2 h or 3 h, 30 μl of sample was removed from the mix and digestion was stopped by addition of 10 μl of 16% SDS Laemmli sample buffer. Samples were run on 4-12% NuPAGE Bis-Tris gels (Life Technologies). Proteins were visualised by staining with InstantBlue Coomassie Protein Stain (Expedeon) protein stain.
(§4) Purified R15A and R15B were diluted to 3 μM in PBS, and incubated for 15′ at RT with 100 μM Raphin1, or DMSO vehicle. Reactions were initiated by addition of 5 nM of trypsin from bovine pancreas (Sigma), made up in PBS, and allowed to proceed for 5′ at 22° C., with shaking at 350 rpm. Digestion was stopped by addition of 4× Laemmli sample buffer and samples were run on 4-12% NuPAGE Bis-Tris gels (Life Technologies). Proteins were visualised by staining with InstantBlue Protein Stain.

[4] = target: T4, R15B (Homo sapiens, UniProt Q5SWA1); experiment: Limited trypsin proteolysis of R15B (conformational change); details: 100 μM compound, 0.5 μM R15B, 2.5 nM trypsin, 30 min to 3 h, 22° C.
T4 construct: PPP1R15B amino acids 340-698 (R15B); His6 (C); made in house; host or cells: E. coli BL21 pLysS
T4 sequence (Q5SWA1 340-698): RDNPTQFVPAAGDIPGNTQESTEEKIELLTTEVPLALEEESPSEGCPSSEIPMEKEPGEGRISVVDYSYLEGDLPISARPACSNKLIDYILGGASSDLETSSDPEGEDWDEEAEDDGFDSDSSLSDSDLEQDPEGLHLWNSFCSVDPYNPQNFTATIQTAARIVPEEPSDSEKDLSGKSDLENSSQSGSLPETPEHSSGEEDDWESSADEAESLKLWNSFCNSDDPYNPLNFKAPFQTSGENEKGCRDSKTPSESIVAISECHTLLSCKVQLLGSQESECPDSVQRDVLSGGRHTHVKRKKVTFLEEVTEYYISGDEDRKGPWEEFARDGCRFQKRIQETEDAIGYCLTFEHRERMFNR
Method: as §3, §4

[5] = target: T3, R15A; experiment: Light scattering to monitor aggregation of R15A; details: 5 μM R15A, 10 min, 20° C.
Method: Samples were incubated for 10 min at RT. […] Therefore, light scattering was measured at 380 nm emission, 380 nm absorption to monitor the presence of aggregates. For each sample, 100 data points were collected over a period of 10 min, at 20° C., with constant stirring.

[6] = tested on: HeLa cells; experiment: Cytoprotection of HeLa cells from Tunicamycin (ER) stress; assay type: cell-based; details: 250 ng/ml Tunicamycin, 72 h
Method: HeLa cells (40,000 cells/ml) were plated in a 96-well plate and treated with different concentrations of compound, as indicated, or DMSO vehicle in the presence of 250 ng/ml Tunicamycin for 72 h. To monitor cell death, 1/2000 dilution of the CellTox green dye (Promega) was added to the media. The growth of the cells was monitored over time and pictures taken every 2 h with the IncuCyte ZOOM system and analysed by the IncuCyte ZOOM software (Essen BioScience). To compare different compounds and their cytoprotective effect, a growth ratio for each time point was calculated:
Growth ratio=(Phase confluency (%) at X hours)/(Phase confluency (%) at 0 hours)
The end point of the assay (72 h) was chosen for generating the graphs.

[7] = target: T5, PP1c (Homo sapiens, UniProt P62136); experiment: Dephosphorylation of P-eIF2α by increasing amounts of PP1c alone; assay type: biochemical; details: compound 100 μM, 30° C., 16 h
T5 construct: The cDNA encoding amino acids 7-330 of human PP1cα; made in house; host or cells: E. coli BL21/pGro7 (PP1c); E. coli BL21 pLysS (eIF2α)
Method: as §1, §2

[8] = target: eIF2α; experiment: Thermophoresis affinity measurement, binding to labelled P-eIF2α; parameters: species or system human
Method: Thermophoresis experiments were performed using a Monolith NT.115 instrument (NanoTemper Technologies). PP1c and P-eIF2α proteins were labeled using the Monolith NT Protein labelling Kit Red-NHS and stored for no longer than a month at −80° C. For thermophoresis, all protein dilutions were carried out in MST buffer (50 mM HEPES (pH 7.4), 100 mM NaCl, 0.1% Tween20, 2 mM MnCl2). Labelled proteins (100 nM) were mixed with equal volumes of serial dilutions of the unlabelled binding partner. In holophosphatase binding experiments, labelled P-eIF2 was diluted to 100 nM in MST buffer containing 10 μM regulatory subunit and then mixed as above with titrations of unlabelled PP1c. All experiments were carried out in enhanced grade capillaries, using 100% LED power and 100% IR-laser (on for 25 seconds (″)) at 20° C. NanoTemper Analysis 1.2.101 software was used to fit the data with a nonlinear solution of the law of mass action and KD values were determined. Each measurement was repeated in three independent experiments and KD values were averaged. Standard error of the mean (SEM) values are shown.

T3 sequence (O75807 325-636, stated change not applied): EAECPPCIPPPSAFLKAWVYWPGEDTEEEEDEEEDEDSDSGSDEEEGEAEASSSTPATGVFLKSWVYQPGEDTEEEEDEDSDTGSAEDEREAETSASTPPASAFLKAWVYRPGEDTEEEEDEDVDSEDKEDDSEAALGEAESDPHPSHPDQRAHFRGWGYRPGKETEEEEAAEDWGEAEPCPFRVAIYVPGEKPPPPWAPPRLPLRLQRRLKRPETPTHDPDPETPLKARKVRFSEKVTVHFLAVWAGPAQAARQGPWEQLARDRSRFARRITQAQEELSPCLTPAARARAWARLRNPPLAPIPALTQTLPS
T5 sequence (P62136 7-330): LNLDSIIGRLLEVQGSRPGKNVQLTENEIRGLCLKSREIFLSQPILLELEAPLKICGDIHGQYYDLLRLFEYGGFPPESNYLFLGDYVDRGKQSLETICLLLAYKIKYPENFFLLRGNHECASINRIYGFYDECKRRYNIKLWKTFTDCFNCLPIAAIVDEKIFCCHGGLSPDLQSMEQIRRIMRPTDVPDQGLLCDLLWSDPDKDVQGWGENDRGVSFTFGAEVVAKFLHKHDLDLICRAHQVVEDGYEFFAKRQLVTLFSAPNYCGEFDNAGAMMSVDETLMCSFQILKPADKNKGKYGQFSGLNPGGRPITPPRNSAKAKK
T1 sequence (O75807 325-636, stated change not applied): as the sequence (O75807 325-636, stated change not applied) above
T1 sequence (P62136 7-330 partner): as the sequence (P62136 7-330) above
T2 sequence (P62136 7-330 partner limits assumed, one chain of several): as the sequence (P62136 7-330) above

Q: `N=C(N)N/N=C/c1ncccc1Cl` [C3, (E)-2-((3-chloropyridin-2-yl)methylene)hydrazine-1-carboximidamide] was tested. Which “inhibition of R15A-PP1c eIF2α holophosphatase” value [1] did it give?
A: did not inhibit R15A-PP1 or R15B-PP1

Q: And the “inhibition of R15B-PP1c eIF2α holophosphatase” value [2]?
A: did not inhibit R15A-PP1 or R15B-PP1

Q: What about the “sensitivity of R15A to trypsin proteolysis” value [3] of the same compound?
A: did not alter the protease sensitivity

Q: And the “sensitivity of R15B to trypsin proteolysis” value [4]?
A: did not alter the protease sensitivity

Q: What about the “aggregation of R15A (light scattering at 380 nm)” value ([5]; 1 mM compound) of the same compound?
A: No aggregation

Q: And the “cytoprotection from ER stress” value [6]?
A: inactive

Q: For `O=C(/C=C/c1ccccc1)NC(NC(=S)Nc1cccc2cccnc12)C(Cl)(Cl)Cl` (stereo not shown) [Salubrinal], which “inhibition of PP1c alone” value [7] is on record?
A: inhibited PP1c

Q: What about the “aggregation of R15A (light scattering at 380 nm)” value ([5]; 50 μM compound) of the same compound?
A: induced robust aggregation

Q: For “PP1c^D95A: catalytically inactive D95A mutant of human PP1cα (amino acids 7-330)”, which Kd ([8]; 20° C.) is on record?
A: ~650 nM

Q: Which “affinity for eIF2α relative to isolated PP1c^D95A” value ([8]; 10 μM regulatory subunit) does the source give for “R15B-PP1c^D95A: holophosphatase complex of R15B (PPP1R15B 340-698) with PP1c^D95A” here?
A: 3.0 times higher
